Data from patent publication US20100144758A1, “AZAINDOLE P2X3 AND P2X2/3 MODULATORS” (priority 2008, published 2010).

How the values were obtained:
[1] = biological target: T1, rat P2X3 receptor (Rattus norvegicus, UniProt P49654); assay: P2X3 FLIPR (Fluorometric Imaging Plate Reader) assay; format: cell-based; conditions: CHO-K1 cells transfected with rat P2X3; agonist α,β-meATP 1 μM; Fluo-3 calcium fluorescence
T1 construct: expressed in transfected cells; host or cells: CHO-K1
T1 sequence (P49654 1-397): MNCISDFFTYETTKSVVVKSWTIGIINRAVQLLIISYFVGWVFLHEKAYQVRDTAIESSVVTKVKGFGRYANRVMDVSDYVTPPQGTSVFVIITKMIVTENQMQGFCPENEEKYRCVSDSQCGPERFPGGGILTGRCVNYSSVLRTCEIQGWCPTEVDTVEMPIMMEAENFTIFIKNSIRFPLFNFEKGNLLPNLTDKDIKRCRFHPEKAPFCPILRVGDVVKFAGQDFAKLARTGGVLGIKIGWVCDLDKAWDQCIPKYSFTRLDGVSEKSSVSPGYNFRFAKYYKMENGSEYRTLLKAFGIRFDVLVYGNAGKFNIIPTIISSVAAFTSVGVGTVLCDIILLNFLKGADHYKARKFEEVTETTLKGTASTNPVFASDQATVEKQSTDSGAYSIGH
Procedure: (§1) CHO-K1 cells were transfected with cloned rat P2X3 or human P2X2/3 receptor subunits and passaged in flasks. 18-24 hours before the FLIPR experiment, cells were released from their flasks, centrifuged, and resuspended in nutrient medium at 2.5×10^5 cells/ml. The cells were aliquoted into black-walled 96-well plates at a density of 50,000 cells/well and incubated overnight in 5% CO2 at 37° C. On the day of the experiment, cells were washed in FLIPR buffer (calcium- and magnesium-free Hank's balanced salt solution, 10 mM HEPES, 2 mM CaCl2, 2.5 mM probenecid; FB). Each well received 100 μl FB and 100 μl of the fluorescent dye Fluo-3 AM [2 μM final conc.]. […]
(§2) Test compounds (dissolved in DMSO at 10 mM and serially diluted with FB) or vehicle were added to each well (25 μl of a 4× solution) and allowed to equilibrate for 20 minutes at room temperature. The plates were then placed in the FLIPR and a baseline fluorescence measurement (excitation at 488 nm and emission at 510-570 nm) was obtained for 10 seconds before a 100 μl/well agonist or vehicle addition. […] Fluorescence was measured for an additional 2 minutes at 1 second intervals after agonist addition. A final addition of ionomycin (5 μM, final concentration) was made to each well of the FLIPR test plate to establish cell viability and maximum fluorescence of dye-bound cytosolic calcium. […]

[2] = biological target: T2, human P2X2/3 receptor (Homo sapiens, UniProt P56373+Q9UBL9); assay: P2X2/3 FLIPR (Fluorometric Imaging Plate Reader) assay; format: cell-based; conditions: CHO-K1 cells transfected with human P2X2/3; agonist α,β-meATP 5 μM; Fluo-3 calcium fluorescence
T2 construct: expressed in transfected cells; host or cells: CHO-K1
T2 sequence (Q9UBL9 1-471): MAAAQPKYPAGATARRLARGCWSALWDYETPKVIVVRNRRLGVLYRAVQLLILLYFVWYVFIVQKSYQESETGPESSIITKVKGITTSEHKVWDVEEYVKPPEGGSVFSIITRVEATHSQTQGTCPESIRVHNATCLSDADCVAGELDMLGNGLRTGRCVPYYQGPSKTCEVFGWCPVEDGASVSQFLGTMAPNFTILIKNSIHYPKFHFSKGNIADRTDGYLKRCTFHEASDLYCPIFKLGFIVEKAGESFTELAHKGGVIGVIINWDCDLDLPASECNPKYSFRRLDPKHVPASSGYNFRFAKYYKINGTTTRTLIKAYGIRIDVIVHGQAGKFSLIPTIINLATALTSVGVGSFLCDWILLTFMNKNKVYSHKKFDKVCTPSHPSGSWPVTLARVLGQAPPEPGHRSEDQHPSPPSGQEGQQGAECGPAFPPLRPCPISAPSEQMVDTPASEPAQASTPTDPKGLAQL
T2 sequence (P56373 1-397): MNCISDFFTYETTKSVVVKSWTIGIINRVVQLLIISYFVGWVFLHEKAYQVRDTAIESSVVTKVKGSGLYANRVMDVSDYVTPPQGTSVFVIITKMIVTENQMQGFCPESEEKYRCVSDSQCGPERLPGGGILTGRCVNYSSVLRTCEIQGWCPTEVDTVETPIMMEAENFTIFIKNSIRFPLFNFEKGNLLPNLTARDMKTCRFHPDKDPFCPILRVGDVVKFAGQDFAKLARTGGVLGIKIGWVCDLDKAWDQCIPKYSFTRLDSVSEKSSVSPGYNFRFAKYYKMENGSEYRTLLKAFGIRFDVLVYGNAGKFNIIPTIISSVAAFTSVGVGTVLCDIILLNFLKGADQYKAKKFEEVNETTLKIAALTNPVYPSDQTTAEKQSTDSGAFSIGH
Procedure: as §1, §2

| IC50 [1] | IC50 [2] | SMILES |
| --- | --- | --- |
| ~0.309 µM | – | Cc1cccc(-n2cc(-c3ccc(F)cc3)c3c(NC4CCOCC4)ncnc32)c1 [Compound 11, [5-(4-Fluoro-phenyl)-7-m-tolyl-7H-pyrrolo[2,3-d]pyrimidin-4-yl]-(tetrahydro-pyran-4-yl)-amine] |
| – | ~0.501 µM | Cc1ccc(-n2cc(-c3ccccc3)c3c(N[C@H](C)CO)ncnc32)cc1Cl [Compound 12, (R)-2-[7-(3-Chloro-4-methyl-phenyl)-5-phenyl-7H-pyrrolo[2,3-d]pyrimidin-4-ylamino]-propan-1-ol] |
